Patent US8148391B2 (Cephalon, Inc., priority 2006, dated 2012)
Like-named read-outs stand apart in the source and are kept apart here.

Assays:
[1] = target: T1, baculovirus-expressed ALK (Homo sapiens, UniProt Q9UM73); assay: ALK Kinase Assay (ELISA-type, time-resolved fluorescence); assay type: biochemical
T1 construct: host or cells: baculovirus expression system
How it was run: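 Wells were coated with phospholipase C-γ at 10 μg/mL in Tris-buffered saline. Adding 30 ng/ml enzyme started the reaction, which ran at 37° C for 15 minutes before Eu-N1 PT66 antibody detection. Percent inhibition versus log10 concentration gave IC50 by variable-slope fit.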

[2] = target: T2, c-Met (cytoplasmic domain) (Homo sapiens, UniProt P08581); assay: c-Met Kinase Assay (same methods as for ALK, with modifications); assay type: biochemical
T2 construct: 10 ng/mL c-Met (cytoplasmic domain, Invitrogen Corporation #PV3143); purchased Invitrogen Corporation PV3143
T2 sequence (P08581 956-1390 limits assumed): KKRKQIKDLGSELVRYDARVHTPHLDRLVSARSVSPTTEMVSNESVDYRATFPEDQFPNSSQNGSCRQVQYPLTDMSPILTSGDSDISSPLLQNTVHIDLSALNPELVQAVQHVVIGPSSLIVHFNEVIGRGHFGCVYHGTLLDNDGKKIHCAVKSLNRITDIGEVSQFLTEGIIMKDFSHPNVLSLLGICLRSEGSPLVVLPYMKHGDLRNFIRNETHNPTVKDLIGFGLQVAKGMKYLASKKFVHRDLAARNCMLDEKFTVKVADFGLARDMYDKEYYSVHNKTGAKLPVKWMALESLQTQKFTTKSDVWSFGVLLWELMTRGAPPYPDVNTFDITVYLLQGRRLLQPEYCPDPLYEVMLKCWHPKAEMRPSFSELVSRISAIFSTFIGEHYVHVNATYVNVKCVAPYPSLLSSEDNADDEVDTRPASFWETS
How it was run: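 Steps: coat wells with PLC-γ (10 μg/mL, Tris-buffered saline); add 10 ng/mL c-Met cytoplasmic domain to initiate; incubate 15 min, 37° C; detect phosphoproduct via Eu-N1 PT66 antibody.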

[3] = ALK kinase inhibition, 1 μM ATP (Km level), read-out: ALK Activity
[4] = c-Met kinase inhibition, 1 μM ATP (Km level), read-out: cMet Activity
[5] = ALK kinase inhibition, 1 μM ATP, read-out: ALK Activity
[6] = c-Met kinase inhibition, 1 μM ATP, read-out: cMet Activity
[7] = 1 μM ATP (Km level), read-out: ALK Activity (ALK Kinase Inhibition, IC50)
[8] = 1 μM ATP (Km level), read-out: cMet Activity (c-Met Kinase Inhibition, IC50)
[9] = 1 μM ATP (Km level), 30 ng/ml ALK, 37° C., 15 minutes, read-out: ALK Activity (ALK kinase inhibition, IC50 class)
[10] = 1 μM ATP (Km level), 10 ng/mL c-Met, read-out: cMet Activity (c-Met kinase inhibition, IC50 class)

T1 sequence (Q9UM73 19-1620): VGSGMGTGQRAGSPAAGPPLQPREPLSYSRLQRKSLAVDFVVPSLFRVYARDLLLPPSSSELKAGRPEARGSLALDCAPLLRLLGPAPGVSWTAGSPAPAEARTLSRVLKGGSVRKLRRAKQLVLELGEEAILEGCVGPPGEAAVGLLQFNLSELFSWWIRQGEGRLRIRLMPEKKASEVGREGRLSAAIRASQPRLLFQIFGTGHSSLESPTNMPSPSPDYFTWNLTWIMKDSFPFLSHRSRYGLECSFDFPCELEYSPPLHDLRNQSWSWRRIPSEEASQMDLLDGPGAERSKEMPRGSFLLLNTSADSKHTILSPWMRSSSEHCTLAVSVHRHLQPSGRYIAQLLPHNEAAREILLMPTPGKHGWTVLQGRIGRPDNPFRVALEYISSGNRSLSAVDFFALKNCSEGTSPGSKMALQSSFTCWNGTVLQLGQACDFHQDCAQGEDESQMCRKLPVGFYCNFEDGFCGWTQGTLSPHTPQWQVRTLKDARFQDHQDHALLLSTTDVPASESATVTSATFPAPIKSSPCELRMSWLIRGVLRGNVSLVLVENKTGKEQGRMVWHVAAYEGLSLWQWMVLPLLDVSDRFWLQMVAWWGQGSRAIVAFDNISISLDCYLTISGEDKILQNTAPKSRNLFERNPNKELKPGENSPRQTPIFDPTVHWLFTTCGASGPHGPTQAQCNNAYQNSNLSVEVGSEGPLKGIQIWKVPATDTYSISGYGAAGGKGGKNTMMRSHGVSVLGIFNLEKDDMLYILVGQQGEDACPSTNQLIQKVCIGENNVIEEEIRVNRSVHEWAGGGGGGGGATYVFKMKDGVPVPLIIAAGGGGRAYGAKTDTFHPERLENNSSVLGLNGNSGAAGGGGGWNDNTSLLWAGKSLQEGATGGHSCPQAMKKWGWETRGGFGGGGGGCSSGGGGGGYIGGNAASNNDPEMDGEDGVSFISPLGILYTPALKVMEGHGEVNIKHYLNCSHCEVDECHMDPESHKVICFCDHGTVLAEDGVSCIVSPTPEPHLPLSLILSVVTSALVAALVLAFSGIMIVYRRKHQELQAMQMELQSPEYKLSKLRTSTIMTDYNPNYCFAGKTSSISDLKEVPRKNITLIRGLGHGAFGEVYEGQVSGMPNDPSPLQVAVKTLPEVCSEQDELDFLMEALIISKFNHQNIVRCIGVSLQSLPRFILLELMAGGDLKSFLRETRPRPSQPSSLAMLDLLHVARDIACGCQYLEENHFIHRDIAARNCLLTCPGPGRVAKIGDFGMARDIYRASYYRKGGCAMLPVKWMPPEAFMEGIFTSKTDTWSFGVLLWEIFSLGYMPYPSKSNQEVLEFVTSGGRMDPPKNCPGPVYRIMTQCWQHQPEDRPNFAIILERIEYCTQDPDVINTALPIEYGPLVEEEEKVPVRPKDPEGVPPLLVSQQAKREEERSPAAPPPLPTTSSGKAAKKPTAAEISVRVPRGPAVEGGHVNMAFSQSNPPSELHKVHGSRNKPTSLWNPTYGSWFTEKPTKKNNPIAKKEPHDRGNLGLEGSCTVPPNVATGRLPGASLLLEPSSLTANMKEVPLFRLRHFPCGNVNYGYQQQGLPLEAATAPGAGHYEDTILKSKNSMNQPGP

An IC50 [1, 3] of 100 to 1000 nM and an IC50 [2, 4] of 100 to 1000 nM were found for CNC(=O)c1cc(C)cc(C)c1Nc1nc(Nc2ccc3c(c2)CCN(CCOC)CC3)ncc1Cl [Example 317, 2-{5-Chloro-2-[3-(2-methoxy-ethyl)-2,3,4,5-tetrahydro-1H-benzo[d]azepin-7-ylamino]-pyrimidin-4-ylamino}-3,5,N-trimethyl-benzamide] in this work.
An IC50 [1, 5] of less than 100 nM and an IC50 [2, 6] of 1000 to 10000 nM were found for COc1cc2c(cc1Nc1ncc(Cl)c(Nc3ccccc3S(=O)(=O)N(C)C)n1)CCN(CC(=O)N1CCN(C)CC1)CC2 [Example 1538, 2-(5-Chloro-2-{8-methoxy-3-[2-(4-methyl-piperazin-1-yl)-2-oxo-ethyl]-2,3,4,5-tetrahydro-1H-3-benzazepin-7-ylamino}-pyrimidin-4-ylamino)-N,N-dimethyl-benzenesulfonamide] in this work.
An IC50 [1, 3] of less than 100 nM and an IC50 [2, 4] of 1000 to 10000 nM were found for COCCN1CCc2ccc(Nc3ncc(Cl)c(Nc4ccccc4OC)n3)cc2CC1 [Example 145, 5-Chloro-N*2*-[3-(2-methoxy-ethyl)-2,3,4,5-tetrahydro-1H-benzo[d]azepin-7-yl]-N*4*-(2-methoxy-phenyl)-pyrimidine-2,4-diamine] in this work.
An IC50 [1, 7] of 100 to 1000 nM and an IC50 [2, 8] greater than 10000 nM were found for COc1c(Nc2ncc(Cl)c(NC3CCCCNC3=O)n2)ccc2c1CCC(N1CCOCC1)CC2 (mixture of isomers) [Example 902, 3-[5-Chloro-2-(1-methoxy-7-morpholin-4-yl-6,7,8,9-tetrahydro-5H-benzocyclohepten-2-ylamino)-pyrimidin-4-ylamino]-azepan-2-one] in this work.
An IC50 [1, 3] of less than 100 nM and an IC50 [2, 4] of 100 to 1000 nM were found for CN1CCN(S(C)(=O)=O)Cc2ccc(Nc3ncc(Cl)c(Nc4ccccc4NS(C)(=O)=O)n3)cc21 [Example 474, N-{2-[5-Chloro-2-(4-methanesulfonyl-1-methyl-2,3,4,5-tetrahydro-1H-benzo[e][1,4]diazepin-8-ylamino)-pyrimidin-4-ylamino]-phenyl}-methanesulfonamide] in this work.
An IC50 [1, 5] of less than 100 nM and an IC50 [2, 6] of less than 100 nM were found for COCC(=O)NC1CC(C)(C)c2ccc(Nc3ncc(Cl)c(Nc4c(F)cccc4C(=O)NCC#N)n3)cc2NC1=O (stereo not drawn) [Example 1637, 2-{5-Chloro-2-[3-(2-methoxy-acetylamino)-5,5-dimethyl-2-oxo-2,3,4,5-tetrahydro-1H-benzo[b]azepin-8-ylamino]-pyrimidin-4-ylamino}-N-cyanomethyl-3-fluoro-benzamide] in this work.
An IC50 [1, 7] of 1000 to 10000 nM and an IC50 [2, 8] of 1000 to 10000 nM were found for Cc1ccc(-c2ccccc2Nc2nc(Nc3ccc4c(c3)CCCC(=O)N4C)ncc2Cl)nc1 [Example 1004, 7-{5-Chloro-4-[2-(5-methyl-pyridin-2-yl)-phenylamino]-pyrimidin-2-ylamino}-1-methyl-1,3,4,5-tetrahydro-benzo[b]azepin-2-one] in this work.
An IC50 [1, 3] of less than 100 nM and an IC50 [2, 4] of 100 to 1000 nM were found for COCCN1CCc2ccc(Nc3ncc(Cl)c(Nc4ccc(N5CCOCC5)cc4OC)n3)cc2CC1 [Example 309, 5-Chloro-N*2*-[3-(2-methoxy-ethyl)-2,3,4,5-tetrahydro-1H-benzo[d]azepin-7-yl]-N*4*-(2-methoxy-4-morpholin-4-yl-phenyl)-pyrimidine-2,4-diamine] in this work.
An IC50 [1, 7] of less than 100 nM and an IC50 [2, 8] of 100 to 1000 nM were found for “(1S,2S,3R,4R)-3-{5-Chloro-2-[7-(4-methyl-piperazin-1-yl)-6,7,8,9-tetrahydro-5H-benzocyclohepten-2-ylamino]-pyrimidin-4-ylamino}-bicyclo[2.2.1]hept-5-ene-2-carboxylic acid amide [Example 893]” in this work.
An IC50 [1, 9] of less than 100 nM and an IC50 [2, 10] of 100 to 1000 nM were found for Cc1cccc(C(=O)NCC#N)c1Nc1nc(Nc2ccc3c(c2)C(C)(C)CCC(=O)N3)ncc1Cl [Example 1038, 2-[5-Chloro-2-(5,5-dimethyl-2-oxo-2,3,4,5-tetrahydro-1H-benzo[b]azepin-7-ylamino)-pyrimidin-4-ylamino]-N-cyanomethyl-3-methyl-benzamide] in this work.
An IC50 [1, 3] of 1000 to 10000 nM and an IC50 [2, 4] of 1000 to 10000 nM were found for C#CCNc1nc(Nc2ccc3c(c2)CCN(CC)CC3)ncc1Cl [Example 153, 5-Chloro-N*2*-(3-ethyl-2,3,4,5-tetrahydro-1H-benzo[d]azepin-7-yl)-N*4*-prop-2-ynyl-pyrimidine-2,4-diamine] in this work.
An IC50 [1, 7] of less than 100 nM and an IC50 [2, 8] greater than 10000 nM were found for COCCN1CCc2cc(Nc3ncc(Cl)c(NC4C5C=CC(C5)C4C(=O)N(C)C)n3)c(OC)cc2CC1 (stereo not drawn) [Example 606, (2-exo-3-exo)-3-{5-Chloro-2-[8-methoxy-3-(2-methoxy-ethyl)-2,3,4,5-tetrahydro-1H-benzo[d]azepin-7-ylamino]-pyrimidin-4-ylamino}-bicyclo[2.2.1]hept-5-ene-2-carboxylic acid dimethylamide] in this work.
An IC50 [1, 5] of 100 to 1000 nM and an IC50 [2, 6] of 100 to 1000 nM were found for CNC(=O)c1sccc1Nc1nc(Nc2ccc3c(c2)OCCCN3C(=O)OC2CCCN(C)C2)ncc1Cl (stereo not drawn) [Example 1440, 3-[5-Chloro-4-(2-methylcarbamoyl-thiophen-3-ylamino)-pyrimidin-2-ylamino]-7,8-dihydro-6H-5-oxa-9-aza-benzocycloheptene-9-carboxylic acid 1-methyl-piperidin-3-yl ester] in this work.
An IC50 [1, 3] of less than 100 nM and an IC50 [2, 4] greater than 10000 nM were found for COc1cc2c(cc1Nc1ncc(Cl)c(N[C@@H]3CCCC[C@H]3NS(C)(=O)=O)n1)CCNC(=O)C2 [Example 263, N-{(1R,2R)-2-[5-Chloro-2-(8-methoxy-2-oxo-2,3,4,5-tetrahydro-1H-benzo[d]azepin-7-ylamino)-pyrimidin-4-ylamino]-cyclohexyl}-methanesulfonamide] in this work.
An IC50 [1, 3] of less than 100 nM and an IC50 [2, 4] of less than 100 nM were found for CCN1CCc2ccc(Nc3ncc(Br)c(Nc4ccccc4C(=O)NC)n3)cc2CC1 [Example 192, 2-[2-(3-Ethyl-2,3,4,5-tetrahydro-1H-benzo[d]azepin-7-ylamino)-5-bromo-pyrimidin-4-ylamino]-N-methyl-benzamide] in this work.
An IC50 [1, 7] of less than 100 nM and an IC50 [2, 8] greater than 10000 nM were found for CCNC(=O)c1ccccc1Nc1nc(Nc2cc3c(cc2OC)CCN(CC(C)(F)F)CC3)ncc1Cl [Example 788, 2-{5-Chloro-2-[3-(2,2-difluoro-propyl)-8-methoxy-2,3,4,5-tetrahydro-1H-benzo[d]azepin-7-ylamino]-pyrimidin-4-ylamino}-N-ethyl-benzamide] in this work.
An IC50 [1, 9] of less than 100 nM and an IC50 [2, 10] greater than 10000 nM were found for CCN1C(=O)CCC(C)(C)c2cc(Nc3ncc(Cl)c(N[C@H]4[C@@H](C(N)=O)[C@@H]5C=C[C@H]4C5)n3)c(OC)cc21 [Example 1314, (1S,2S,3R,4R)-3-[5-Chloro-2-(1-ethyl-8-methoxy-5,5-dimethyl-2-oxo-2,3,4,5-tetrahydro-1H-benzo[b]azepin-7-ylamino)-pyrimidin-4-ylamino]-bicyclo[2.2.1]hept-5-ene-2-carboxylic acid amide] in this work.
An IC50 [1, 9] of less than 100 nM and an IC50 [2, 10] of 1000 to 10000 nM were found for COc1cc2c(cc1Nc1ncc(Cl)c(Nc3ccccc3S(=O)(=O)N(C)C)n1)CCN(Cc1ncco1)CC2 [Example 1170, 2-[5-Chloro-2-(8-methoxy-3-oxazol-2-ylmethyl-2,3,4,5-tetrahydro-1H-benzo[d]azepin-7-ylamino)-pyrimidin-4-ylamino]-N,N-dimethyl-benzenesulfonamide] in this work.
An IC50 [1, 9] of less than 100 nM and an IC50 [2, 10] of 1000 to 10000 nM were found for COc1cc2c(cc1Nc1ncc(Cl)c(Nc3ccccc3S(=O)(=O)C(C)C)n1)CCN(CC(=O)N(C)C)CC2 [Example 1151, 2-(7-{5-Chloro-4-[2-(propane-2-sulfonyl)-phenylamino]-pyrimidin-2-ylamino}-8-methoxy-1,2,4,5-tetrahydro-benzo[d]azepin-3-yl)-N,N-dimethyl-acetamide] in this work.
An IC50 [1, 3] of less than 100 nM and an IC50 [2, 4] of less than 100 nM were found for CNC(=O)c1ccccc1Nc1nc(Nc2ccc3c(c2)CCN(C(=O)N(C)C)CC3)ncc1Cl [Example 327, 7-[5-Chloro-4-(2-methylcarbamoyl-phenylamino)-pyrimidin-2-ylamino]-1,2,4,5-tetrahydro-benzo[d]azepine-3-carboxylic acid dimethylamide] in this work.
An IC50 [1, 7] of less than 100 nM and an IC50 [2, 8] greater than 10000 nM were found for COc1cc2c(cc1Nc1ncc(Cl)c(N[C@H]3[C@@H](C(N)=O)[C@@H]4C=C[C@H]3C4)n1)CCN(CC1CC1)CC2 [Example 775, (1S,2S,3R,4R)-3-[5-Chloro-2-(3-cyclopropylmethyl-8-methoxy-2,3,4,5-tetrahydro-1H-benzo[d]azepin-7-ylamino)-pyrimidin-4-ylamino]-bicyclo[2.2.1]hept-5-ene-2-carboxylic acid amide] in this work.
An IC50 [1, 5] of less than 100 nM and an IC50 [2, 6] of 100 to 1000 nM were found for CCN1CCNC(=O)c2ccc(Nc3ncc(Cl)c(Nc4ccccc4-c4nccn4C)n3)cc21 [Example 1453, 8-{5-Chloro-4-[2-(1-methyl-1H-imidazol-2-yl)-phenylamino]-pyrimidin-2-ylamino}-1-ethyl-1,2,3,4-tetrahydro-benzo[e][1,4]diazepin-5-one] in this work.
An IC50 [1, 7] of 100 to 1000 nM and an IC50 [2, 8] of 100 to 1000 nM were found for COCCN1CCc2ccc(Nc3ncc(Cl)c(Nc4cc(C(N)=O)n[nH]4)n3)cc2CC1 [Example 954, 5-{5-Chloro-2-[3-(2-methoxy-ethyl)-2,3,4,5-tetrahydro-1H-3-benzazepin-7-ylamino]-pyrimidin-4-ylamino}-1H-pyrazole-3-carboxylic acid amide] in this work.
An IC50 [1, 3] of 100 to 1000 nM and an IC50 [2, 4] of 1000 to 10000 nM were found for COCCN1CCc2ccc(Nc3ncc(Cl)c(NCC(C)NS(C)(=O)=O)n3)cc2CC1 (stereo not drawn) [Example 301, N-(2-{5-Chloro-2-[3-(2-methoxy-ethyl)-2,3,4,5-tetrahydro-1H-benzo[d]azepin-7-ylamino]-pyrimidin-4-ylamino}-1-methyl-ethyl)-methanesulfonamide] in this work.
